Experimental data: ChEMBL document CHEMBL1137051, “More potent linear peptide inhibitors of mammalian ribonucleotide reductase” (Bioorg Med Chem Lett, 2004)
Where a SMILES comes first, the peptide text is derived from it. [ ]: non-standard residue; d: D form. The star is where a group is joined. Fmoc = O=C(OCC1c2ccccc2-c2ccccc21)*; NMeF = CN[C@@H](Cc1ccccc1)C(=O)O; NMePhg = CN[C@H](C(=O)O)c1ccccc1; Cha = N[C@@H](CC1CCCCC1)C(=O)O

biological target: T1, Ribonucleoside-diphosphate reductase RR1 (Homo sapiens, UniProt P23921+P31350+Q7LG56); assay: (§1) Inhibition of mammalian ribonucleotide reductase in a standard dTTP-dependent GDP reductase assay; type: protein-complex assay
T1 sequence (P23921 whole entry): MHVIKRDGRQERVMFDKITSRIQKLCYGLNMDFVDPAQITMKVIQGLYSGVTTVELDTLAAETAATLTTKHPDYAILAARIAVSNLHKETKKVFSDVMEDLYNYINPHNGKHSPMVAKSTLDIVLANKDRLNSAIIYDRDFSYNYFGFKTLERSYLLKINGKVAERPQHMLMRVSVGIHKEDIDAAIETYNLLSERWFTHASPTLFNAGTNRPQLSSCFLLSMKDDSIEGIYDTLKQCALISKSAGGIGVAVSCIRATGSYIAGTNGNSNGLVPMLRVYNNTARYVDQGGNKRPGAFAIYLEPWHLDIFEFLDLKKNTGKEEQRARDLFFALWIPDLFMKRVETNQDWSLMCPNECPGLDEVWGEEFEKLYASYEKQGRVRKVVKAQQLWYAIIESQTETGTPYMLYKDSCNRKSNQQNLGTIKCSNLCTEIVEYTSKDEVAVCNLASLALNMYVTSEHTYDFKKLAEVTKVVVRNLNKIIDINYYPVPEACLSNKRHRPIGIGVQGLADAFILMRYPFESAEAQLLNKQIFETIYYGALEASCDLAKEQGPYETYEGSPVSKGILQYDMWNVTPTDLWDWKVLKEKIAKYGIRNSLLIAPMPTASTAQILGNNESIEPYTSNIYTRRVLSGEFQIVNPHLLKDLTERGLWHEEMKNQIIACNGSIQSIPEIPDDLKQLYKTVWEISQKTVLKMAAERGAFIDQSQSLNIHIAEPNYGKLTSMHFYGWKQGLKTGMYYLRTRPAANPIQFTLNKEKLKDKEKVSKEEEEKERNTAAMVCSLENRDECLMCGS
T1 sequence (Q7LG56 whole entry): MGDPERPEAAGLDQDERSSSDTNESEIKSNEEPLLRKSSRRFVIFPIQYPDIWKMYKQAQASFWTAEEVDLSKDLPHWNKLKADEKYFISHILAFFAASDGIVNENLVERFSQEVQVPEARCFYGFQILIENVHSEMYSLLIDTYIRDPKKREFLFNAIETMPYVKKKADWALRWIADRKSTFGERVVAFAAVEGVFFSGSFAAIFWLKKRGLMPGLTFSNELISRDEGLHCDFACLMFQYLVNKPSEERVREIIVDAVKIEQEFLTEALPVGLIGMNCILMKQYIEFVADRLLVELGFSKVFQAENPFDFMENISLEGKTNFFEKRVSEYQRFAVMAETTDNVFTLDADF
T1 sequence (P31350 whole entry): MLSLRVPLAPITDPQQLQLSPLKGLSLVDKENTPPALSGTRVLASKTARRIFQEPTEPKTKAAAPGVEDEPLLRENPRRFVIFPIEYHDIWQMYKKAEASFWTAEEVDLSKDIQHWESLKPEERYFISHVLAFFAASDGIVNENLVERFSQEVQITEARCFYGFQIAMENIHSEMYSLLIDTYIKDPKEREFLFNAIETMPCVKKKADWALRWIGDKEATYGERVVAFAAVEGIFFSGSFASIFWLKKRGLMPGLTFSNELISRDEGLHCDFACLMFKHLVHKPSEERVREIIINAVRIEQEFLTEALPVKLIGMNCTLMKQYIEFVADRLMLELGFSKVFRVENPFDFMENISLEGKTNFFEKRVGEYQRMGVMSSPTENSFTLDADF

Compound | IC50 [µM]
O=C(O)C[C@H](NC(=O)[C@H](Cc1ccccc1)NC(=O)[C@H](Cc1c[nH]c2ccccc12)NC(=O)OCC1c2ccccc2-c2ccccc21)C(=O)N[C@@H](Cc1ccccc1)C(=O)O (Fmoc-WFDF-OH) | 22
CC(C)C[C@H](NC(=O)[C@H](c1ccccc1)N(C)C(=O)OCC1c2ccccc2-c2ccccc21)C(=O)N[C@@H](CC(=O)O)C(=O)N[C@@H](CC1CCCCC1)C(=O)N[C@@H](CC(=O)O)C(=O)N[C@@H](Cc1ccccc1)C(=O)O (Fmoc-[NMePhg]LD[Cha]DF-OH) | 1.9

The remaining lines, values ahead:

IC50 [µM] | Compound
20 | CC(C)[C@H](NC(=O)[C@H](Cc1c[nH]c2ccccc12)NC(=O)OCC1c2ccccc2-c2ccccc21)C(=O)N[C@@H](Cc1ccccc1)C(=O)N[C@@H](Cc1ccccc1)C(=O)O (Fmoc-WVFF-OH)
13.3 | Ac-FTLDADF-OH

biological target: T2, Ribonucleoside-diphosphate reductase RR1 (Homo sapiens, UniProt P23921+Q7LG56+P31350); assay: as §1; type: protein-complex assay
T2 sequence (P23921 whole entry): T1 sequence (P23921 whole entry)
T2 sequence (Q7LG56 whole entry): T1 sequence (Q7LG56 whole entry)
T2 sequence (P31350 whole entry): T1 sequence (P31350 whole entry)

IC50 [µM] | Compound
2.4 | CC(C)C[C@H](NC(=O)[C@H](Cc1ccccc1)N(C)C(=O)OCC1c2ccccc2-c2ccccc21)C(=O)N[C@@H](CCC(=O)O)C(=O)N[C@@H](CC1CCCCC1)C(=O)N[C@@H](CC(=O)O)C(=O)N[C@@H](Cc1ccccc1)C(=O)O (Fmoc-[NMeF]LE[Cha]DF-OH)
2.4 | CC(C)C[C@H](NC(=O)[C@H](Cc1ccccc1)N(C)C(=O)OCC1c2ccccc2-c2ccccc21)C(=O)N[C@@H](CC(=O)O)C(=O)N[C@@H](CC1CCCCC1)C(=O)N[C@@H](CC(=O)O)C(=O)N[C@@H](Cc1ccccc1)C(=O)O (Fmoc-[NMeF]LD[Cha]DF-OH)
